Measured values: patent US20130203649A1, “INHIBITORS OF TLR SIGNALING BY TARGETING TIR DOMAIN INTERFACES” (UNIVERSITY OF MARYLAND, BALTIMORE, priority 2012, published 2013)
Entries after “also recorded” stand apart in the source; their conditions may differ. No end group written: not given here.

Key:
Format in all cases: cell-based
TLR2/TLR6 heterodimer = target: T1, TLR2/TLR6 heterodimer (Mus musculus, UniProt Q9QUN7); assay: P2C-induced cytokine mRNA expression in mouse macrophages; settings: P2C 50 ng/ml, 1 h
T1 construct: endogenous in cells; host or cells: thioglycollate-elicited mouse peritoneal macrophages
T1 sequence (Q9QUN7 25-784, one chain of several): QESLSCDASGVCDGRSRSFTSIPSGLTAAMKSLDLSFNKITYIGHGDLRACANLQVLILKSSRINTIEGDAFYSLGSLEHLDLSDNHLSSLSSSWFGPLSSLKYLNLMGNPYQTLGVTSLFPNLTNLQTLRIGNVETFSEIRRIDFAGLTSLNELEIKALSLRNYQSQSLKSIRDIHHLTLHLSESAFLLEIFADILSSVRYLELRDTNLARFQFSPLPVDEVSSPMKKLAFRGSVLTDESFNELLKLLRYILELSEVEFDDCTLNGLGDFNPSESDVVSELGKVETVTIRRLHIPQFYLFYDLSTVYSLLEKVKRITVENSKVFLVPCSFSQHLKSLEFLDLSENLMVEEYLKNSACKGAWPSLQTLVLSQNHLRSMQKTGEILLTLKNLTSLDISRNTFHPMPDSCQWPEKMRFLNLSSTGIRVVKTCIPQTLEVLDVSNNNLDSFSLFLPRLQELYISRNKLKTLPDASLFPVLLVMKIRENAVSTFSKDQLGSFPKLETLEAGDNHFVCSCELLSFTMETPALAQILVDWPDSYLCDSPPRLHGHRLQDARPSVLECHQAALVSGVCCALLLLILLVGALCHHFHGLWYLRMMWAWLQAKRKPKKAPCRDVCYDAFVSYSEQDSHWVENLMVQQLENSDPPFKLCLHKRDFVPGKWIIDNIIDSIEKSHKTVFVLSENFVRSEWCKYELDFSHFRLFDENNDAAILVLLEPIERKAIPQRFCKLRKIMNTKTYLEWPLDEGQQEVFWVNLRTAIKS
Source text: Total cellular RNA was isolated using Tripure from Roche (San Francisco, Calif.) following manufacture's protocol. RNA was then reverse transcribed using AMV Reverse Transcriptase from Promega (Madison, Wis.) with poly-T priming as per manufacturer's directions. cDNA was then quantified by real-time PCR using Applied Biosystems Fast SYBR Green PCR Master Mix and an ABI Prism 7500HT cycler. Primers used for detection: hypoxanthine phosphoribosyltransferase (HPRT) (forward: […] (SEQ ID NO:51), reverse: […] (SEQ ID NO:52)), TNFα (forward: […] (SEQ ID NO:53), reverse: […] (SEQ ID NO:54)), IL-1β (forward: […] (SEQ ID NO:55), reverse: […] (SEQ ID NO:56)), IFNβ (forward: […] (SEQ ID NO:57), reverse: CTCGGACCACCATCCAGG (SEQ ID NO:58)) and RANTES (forward: […] (SEQ ID NO:59), reverse: […] (SEQ ID NO:60)). The primers were designed using Primer Express 2.0 (Applied Biosystems). Using HPRT as reference, the ΔCt method was used to calculate relative gene expression. One-way ANOVA was preformed, as well as Dunnett's multiple comparison post hoc test with a p≦0.01 selected as the level of significance.
Protein-free Escherichia coli K235 LPS was used at final concentration of 10 ng/ml to stimulate cells. S-[2,3-bis(palmitoyloxy)-(2-RS)-propyl]-N-palmitoyl-(R)-Cys-Ser-Lys4-OH (P3C) and S-[2,3-bis(palmitoyloxy)-(2-RS)-propyl]-[R]-Cys-Ser-Lys4-OH (P2C) were purchased from EMC microcollections GmbH (Tubingen, Germany) and used for cell stimulation at 500 and 50 ng/ml, respectively. Phospho-ERK1/2 and phospho-JNK1/2 rabbit Abs were obtained from Cell Signaling Technology, Inc. β-actin rabbit Ab were from SantaCruz Biotechnology, Inc.
Because of the role TRAP plays in TLR2 signaling, TIRAP TIR-derived decoy peptide effects on TLR2-induced cytokine mRNA expression were examined. Thioglycollate-elicited mouse macrophages were stimulated either by P2C, an agonist that induces signaling through TLR2/TLR6 heterodimerization, or P3C, a TLR2/TLR1 agonist, and effects of TIRAP TR-derived decoy peptides on induction of cytokine mRNA were examined. […] To confirm the inhibitory effect of TR3 and TR6 on P3C-induced signaling, IL-6 and TNF-α concentration was measured in macrophage supernatants collected 5 h after stimulation of cells with P3C. […] Concordantly, both TR3 and TR6 diminished the P3C-induced ERK phosphorylation (FIG. 3D).
C57BL/6J mice were obtained from The Jackson Laboratory (BarHarbor, Me.). Harvesting, culturing, and stimulation of peritoneal macrophages were described in previous publications (1, 18, 19). Escherichia coli K235 LPS (34) was used at the final concentration of 100 ng/ml. The 2,3-bis(palmitoyloxy)-(2-RS)-propyl-N-palmitoyl-(R)-Cys-Ser-Lys4-OH (P3C) and S[2,3-bis(palmitoyloxy)-(2-RS)-propyl]-[R]-Cys-Ser-Lys4-OH (P2C) (EMC Microcollections, Tubingen, Germany) were used at 500 and 50 ng/ml, respectively. Oligonucleotide (ODN) 1668 and low m.w. polyinosinic-polycytidylic acid [poly(I:C)] in complex with LyoVec were obtained from InvivoGen; these agonists were used at 2.5 μM and 400 ng/ml, respectively.

TLR2/TLR1 heterodimer [1] = target: T2, TLR2/TLR1 heterodimer (Mus musculus, UniProt Q9QUN7); assay: P3C-induced IL-6 and TNF-α secretion by macrophages (ELISA); settings: supernatants 5 h after P3C 500 ng/ml
T2 construct: endogenous in cells; host or cells: thioglycollate-elicited mouse peritoneal macrophages
T2 sequence (Q9QUN7 25-784, one chain of several): as above
Protocol: (§1) FIG. 3. Effect of TIRAP decoy peptides on TLR2 signaling. Thioglycollate-elicited macrophages were incubated in the presence of 20 (black columns) or 40 μM (open columns) of a decoy peptide for 30 min prior to stimulation with P3C (500 ng/ml) (A and C) or P2C (50 ng/ml) (B). Cytokine mRNA expression was measured 1 h after TLR2 stimulation and is normalized to the expression of HPRT gene. C. IL-6 and TNF-α were measured by ELISA in macrophage supernatants collected 5 h after P3C (500 ng/ml) stimulation. D. Peptides TR3 and TR6 inhibit ERK activation induced by TLR2 agonist, P3C. ERK phosphorylation was measured by Western analysis in primary macrophage stimulated by P3C for 30 min.
Cytokine secretion was measured in supernatant samples collected at 6 or 24 h time points and stored at −80° C. Samples were analyzed by a multiplex assay at the University of Maryland Baltimore Cytokine Core Facility using a Luminex 100 reader and Softmax Pro software, or by ELISA kits for mouse IL-6 or TNF-α from BioLegend (San Diego, Calif.) and LT-4000 microplate reader.
(§2) Because of the role TRAP plays in TLR2 signaling, TIRAP TIR-derived decoy peptide effects on TLR2-induced cytokine mRNA expression were examined. […] To confirm the inhibitory effect of TR3 and TR6 on P3C-induced signaling, IL-6 and TNF-α concentration was measured in macrophage supernatants collected 5 h after stimulation of cells with P3C. […]

TLR2/TLR1 heterodimer [2] = target: T2, TLR2/TLR1 heterodimer; assay: P3C-induced ERK phosphorylation in primary macrophages (Western analysis); settings: P3C 30 min
Protocol: as §1
Cellular protein extracts were isolated by addition of 240 μL per well cold lysate buffer (20 mM Tris, 50 mM NaCl, 1.5 mM MgCl2, 2 mM EDTA, 10 mM NaF, 2 Mm DTT, 1 mM Na3VO4, 1% Triton). Cells were incubated with lysis solution for 30 min on agitator at 4° C. […] After quantification using BioRad protein assay, protein samples were added to Laemmli buffer and then boiled for 10 min. […]
as §2

For RQIKIWFQNRRMKWKKEGSQASLRCF [TR3], the “P2C-induced TNFα and IL-1β mRNA” value (TLR2/TLR6 heterodimer; 20 μM peptide) was “significantly less”, the “P2C-induced TNFα and IL-1β mRNA” value (TLR2/TLR6 heterodimer; 40 μM peptide) was “did not affect significantly” and the “P3C-induced IL-6 and TNF-α secretion” value (TLR2/TLR1 heterodimer [1]) was “profoundly inhibited”. The “P3C-induced ERK phosphorylation” value (TLR2/TLR1 heterodimer [2]) was “diminished; also recorded: inhibit”.

For RQIKIWFQNRRMKWKKPGFLRDPWCKYQML [TR6], the “P2C-induced TNFα and IL-1β mRNA” value (TLR2/TLR6 heterodimer; 20 μM peptide) was “significantly less”, the “P2C-induced TNFα and IL-1β mRNA” value (TLR2/TLR6 heterodimer; 40 μM peptide) was “did not affect significantly” and the “P3C-induced IL-6 and TNF-α secretion” value (TLR2/TLR1 heterodimer [1]) was “profoundly inhibited”. For the same sequence, the “P3C-induced ERK phosphorylation” value (TLR2/TLR1 heterodimer [2]) was “diminished; also recorded: inhibit”.
